Reference: patent US11692160B2, “Microfluidic chip, three-dimensional channel structure, cell culture method using same, and activity evaluation method of bioactive substance using same” (THE ASAN FOUNDATION, priority 2016, dated 2023)

Columns and labels:
[1] = system: lung cancer cells (A549); assay: Evaluation of the pharmacological efficacy of an MMP-1 inhibitor using a microfluidic chip (lung cancer cell travel distance, vascular cell migration area); assay type: cell-based
Protocol: In order to evaluate the efficacy of an anticancer medicine using a microfluidic chip, lung cancer cells (A549, ATCC) were seeded into a microfluidic chip using the same method as in Example 1. Secondarily, vascular cells were seeded (day 0).

[2] = system: pancreatic cancer cells (Mia Paca-2); assay: Evaluation of the pharmacological efficacy of gemcitabine using a microfluidic chip (spread range of cancer cells); assay type: cell-based
Protocol: In order to evaluate the efficacy of an anticancer medicine using a microfluidic chip, pancreatic cancer cells (Mia Paca-2, ATCC) were seeded into a microfluidic chip using the same method as in Example 2. Secondarily, vascular cells (HUVEC, purchased from ATCC) were seeded. Once the cells were confirmed to be attached (day 0: cell seeding date), gemcitabine (Eli Lilly and Company, USA) was administered 3 days later to measure the spread range of the cancer cells. As shown in FIGS. 20A to 20C, the growth and development of cells were observed from the time of cell seeding (day 0) to the 7th day after the drug treatment (day 3). For observation of the cells, an optical microscope image (EVOS, LifeScience, 100 magnification) and a fluorescence microscope image (EVOS, LifeScience, 100 magnification) were superposed. FIGS. 20B and 20C show the results of observation of the cell development using an optical microscope and a fluorescence microscope. The eight images of FIG. 20B, labeled as normal cultures, were those treated with DMSO at day 3 and observed up to day 7. The eight pictures of FIG. 20C, labeled drug treatment, were those treated with gemcitabine on day 3 and observed up to day 7. FIG. 20A is a graph in which the growth width of the cancer cells was statistically quantified from FIGS. 20B and 20C using an Origin […] […]

[3] = A549 with vascular cells in microfluidic chip, inhibitor given 1 day after seeding, increasing concentration (10 μM, 50 μM, 100 μM)

Structure (SMILES)	metastatic process of lung cancer cells ([1]; A549 cultured in the cell culture device (microfluidic chip))	migration area of the vascular cells [1, 3]	travel distance of the lung cancer cells [1, 3]	distribution area of the cancer cells ([2]; Mia Paca-2 co-seeded with HUVEC in microfluidic chip, drug on day 3, observed up to day 7, compared with cells not treated with gemcitabine (DMSO))	growth of pancreatic cancer cells ([2]; Mia Paca-2 in microfluidic chip, gemcitabine on day 3, observed up to day 7)
CNC(=O)[C@H](Cc1c[nH]c2ccccc12)NC(=O)[C@@H](CC(=O)NO)CC(C)C [MMP-1 inhibitor]	inhibits the metastatic process of lung cancer cells	reduced	gradually reduced	–	–
Nc1ccn([C@@H]2O[C@H](CO)[C@@H](O)C2(F)F)c(=O)n1 [gemcitabine, 4-amino-1-(2-deoxy-2,2-difluoro-β-D-erythro-pentofuranosyl)pyrimidin-2(1H)-on]	–	–	–	decreased	inhibits the growth of pancreatic cancer cells
